In patent US9605064B2, “Methods and compositions for treatment of skin disorders” (AbbVie Biotechnology Ltd, priority 2006, dated 2017):
Where “and” joins values, the source holds several entries; their conditions need not be identical. Equal values may be shown once. Marks after values point to notes of the source that are not given here.

Key:
Format in all cases: in vivo, human
[1] = tested on: patients with severe psoriasis who were non-responders to high-dosage etanercept; assay: PASI response, open-label adalimumab in non-responders to high-dosage etanercept
Experimental: (§1) Details on clinical course and adverse events were recorded, along with measurements of PASI and Dermatology Life Quality Index (DLQI) at baseline and Weeks 2, 4, 8, and 12.
This was an open-label prospective evaluation of adalimumab (HUMIRA®, Abbott Laboratories, Abbott Park, Ill., USA). Patients who were non-responders to etanercept were recruited from the Severe Psoriasis Clinic at St John's Institute of Dermatology in London. […] Inclusion criteria included male and female patients more than 18 years of age with plaque psoriasis (Table 98). The study was approved by St Thomas' Research Ethics Committee, and informed consent was obtained from all participants.
The study period was 12 weeks. […] Patients were able to withdraw from the study at any stage. They were permitted to continue topical treatments at stable dosages throughout the study, but could not use concomitant systemic therapy for psoriasis.
(§2) At each clinical visit PASI, DLQI, and percentage body surface area (% BSA) affected were assessed and recorded. In addition, patients received medical assessments together with monitoring laboratory investigations (FIG. 11).
The secondary efficacy endpoint was PASI 75 response rate at Week 12.

[2] = tested on: patients with moderate to severe chronic plaque psoriasis; assay: Physician's Global Assessment (PGA), Phase II trial with 48-week extension; settings: for Percentage of Patients Achieving PGA “Clear” or “Almost Clear”: modified ITT, NRI; for PGA “Clear”/“Almost Clear”: after 60 weeks of 40 mg eow
Description: Efficacy outcome measures included PASI and PGA.
The Physician's Global Assessment (PGA), which was used as a clinical endpoint in the trial, was used to determine the MCID for DLQI. The PGA is a seven point scale used to measure disease severity from a physician's evaluation. Scoring under the PGA ranges from 1 (Clear) to 7 (Severe). Categories for the 7-point scale include the following: • Severe: very marked plaque elevation, scaling and/or erythema; • Moderate to severe: marked plaque elevation, scaling and/or erythema; • Moderate: moderate plaque elevation, scaling and/or erythema; • Mild to moderate: intermediate between moderate and mild; • Mild: slight plaque elevation, scaling and/or erythema; • Almost clear: intermediate between mild and clear; and • Clear: no signs of psoriasis (post-inflammatory hypopigmentation or hyperpigmentation could be present). Scoring regions were from 1 (clear) to 7 (severe). PGA was assessed at screening; baseline; week 1; week 2; week 4; week 8; and week 12/early termination; and follow up. The same investigator performed the assessment for each patient throughout the study. Statistical methods were performed according to the following summary. Analyses were performed on blinded data, combining results from all three groups. Changes in the PGA from baseline to week 12 were correlated with changes in DLQI total score.
The PGA is a seven-point scale used to measure the severity of disease at the time of the physician's evaluation. The seven disease categories are: • Severe: very marked plaque elevation, scaling, and/or erythema • Moderate to Severe: marked plaque elevation, scaling, and/or erythema • Moderate: moderate plaque elevation, scaling, and/or erythema • Mild to moderate: intermediate between moderate and mild • Mild: slight plaque elevation, scaling, and/or erythema • Almost Clear: intermediate between mild and clear • Clear: no signs of psoriasis (post-inflammatory hypopigmentation or hyperpigmentation could be present).
The PGA scale is scored from 1 (Clear) to 7 (Severe). The PGA was assessed by the investigator at screening, baseline, and Weeks 1, 2, 4, 8, 12/Early Termination, and the follow-up visit. Each study site was to make every attempt to have the same investigator perform these assessments throughout the study for each patient.
The PGA is a 7-point scale used to measure disease severity from a physician's evaluation. The categories for the 7-point scale include: Severe: very marked plaque elevation, scaling, and/or erythema; Moderate to severe: marked plaque elevation, scaling, and/or erythema; Moderate: moderate plaque elevation, scaling, and/or erythema; Mild to moderate: intermediate between moderate and mild; Mild: slight plaque elevation, scaling, and/or erythema; Almost clear: intermediate between mild and clear; and Clear: no signs of psoriasis (post-inflammatory hypopigmentation or hyperpigmentation could be present). The scoring ranges are from 1 (Clear) to 7 (Severe). PGA was assessed at screening, baseline, Week 1, Week 2, Week 4, Week 8, Week 12/early termination, and follow-up. The same investigator performed this assessment for each patient throughout the study.

[3] = tested on: patients with moderate to severe chronic plaque psoriasis; assay: PASI response and PGA, 120-week open-label extension study; settings: 40 mg eow, as observed
Description: Exclusion criteria included prior TNF-antagonist therapy.

[4] = tested on: patients with severe psoriasis who were non-responders to high-dosage etanercept; assay: DLQI, open-label adalimumab in non-responders to high-dosage etanercept
Experimental: as §1, §2

[5] = Week 2, individual patients 1-5 (c1-c5), weekly adalimumab
[6] = Week 4, individual patients 1-5 (c1-c5), weekly adalimumab
[7] = Week 8, individual patients 1-5 (c1-c5), weekly adalimumab
[8] = Week 12, individual patients 1-5 (c1-c5), weekly adalimumab
[9] = individual patients 1-5 (c1-c5), weekly adalimumab

For “Adalimumab: a human anti-TNF mAb, described in U.S. Pat. No. 6,090,382 as D2E7 (HUMIRA, Abbott Laboratories)”, the “patients who achieved at least PASI 50” value ([1]; 40 mg weekly, Week 12) was 80%, the “PASI 50 response” value ([1]; Patient 1) was “non-responder” and the “time at which PASI 50 was achieved” value ([1]; Patient 2) was no more than 8 Week. The “time at which PASI 75 was reached” value ([1]; Patient 2) was 12 Week, the “time at which PASI 50 was achieved” value ([1]; Patient 3) was no more than 4 Week and the “time at which PASI 50 was achieved” value ([1]; Patient 4) was no more than 2 Week. For the same substance, the “time at which PASI 75 was reached” value ([1]; Patient 4) was 4 Week, the “time at which PASI 50 was achieved” value ([1]; Patient 5) was no more than 12 Week and the PASI [1, 5] was 23.4 and 23.6 and 21.6 and 11.2 and 22.9. The PASI [1, 6] was 26.7 and 20.1 and 8.70 and 7.00 and 23.6, the PASI [1, 7] was 18.2 and 12.3 and 8.40 and 19.6 and the PASI [1, 8] was 21.2 and 6.30 and 3.3 and 7.10 and 15.2. For the same substance, the “% Improvement in PASI from baseline to Week 12” value [1, 9] was 6% and 82% and 93% and 52% and 53%, the “Percentages of Patients with PGA “Clear” or “Almost Clear”” value ([2]; Week 12, 40 mg eow (Table 78)) was 51% and the “Percentages of Patients with PGA “Clear” or “Almost Clear”” value ([2]; Week 12, 40 mg weekly (Table 78)) was 81%. The “Percentage of Patients Achieving PGA “Clear” or “Almost Clear”” value ([2]; Week 12, adalimumab 40 mg eow) was 49* %, the “Percentage of Patients Achieving PGA “Clear” or “Almost Clear”” value ([2]; Week 12, adalimumab 40 mg weekly) was 76* % and the “Percentage of Patients Achieving PGA “Clear” or “Almost Clear”” value ([2]; Week 24, adalimumab 40 mg eow) was 64%. For the same substance, the “Percentage of Patients Achieving PGA “Clear” or “Almost Clear”” value ([2]; Week 24, adalimumab 40 mg weekly) was 72%, the “Percentage of Patients Achieving PGA “Clear” or “Almost Clear”” value ([2]; Week 24, placebo/adalimumab 40 mg eow (adalimumab from Week 12)) was 45% and the “Percentage of Patients Achieving PGA “Clear” or “Almost Clear”” value ([2]; Week 36, adalimumab 40 mg eow) was 60%. The “Percentage of Patients Achieving PGA “Clear” or “Almost Clear”” value ([2]; Week 36, adalimumab 40 mg weekly) was 68%, the “Percentage of Patients Achieving PGA “Clear” or “Almost Clear”” value ([2]; Week 36, placebo/adalimumab 40 mg eow (adalimumab from Week 12)) was 51% and the “Percentage of Patients Achieving PGA “Clear” or “Almost Clear”” value ([2]; Week 60, adalimumab 40 mg eow) was 44%. For the same substance, the “Percentage of Patients Achieving PGA “Clear” or “Almost Clear”” value ([2]; Week 60, adalimumab 40 mg weekly) was 52%, the “Percentage of Patients Achieving PGA “Clear” or “Almost Clear”” value ([2]; Week 60, placebo/adalimumab 40 mg eow (adalimumab from Week 12)) was 45% and the “PGA “Clear” or “Almost Clear”” value ([2]; baseline PASI ≧10 and DLQI >10, 40 mg eow, Week 12) was 62 % of Patients. For the same substance, the “PGA “Clear” or “Almost Clear”” value ([2]; baseline PASI ≧10 and DLQI >10, 40 mg eow, Week 24) was 69 % of Patients, the “PGA “Clear” or “Almost Clear”” value ([2]; baseline PASI ≧10 and DLQI >10, 40 mg eow, Week 36) was 65 % of Patients and the “PGA “Clear” or “Almost Clear”” value ([2]; baseline PASI ≧10 and DLQI >10, 40 mg eow, Week 60) was 54 % of Patients. The “PGA “Clear” or “Almost Clear”” value ([2]; baseline PASI ≧10 and DLQI >10, 40 mg weekly, Week 12) was 70 % of Patients, the “PGA “Clear” or “Almost Clear”” value ([2]; baseline PASI ≧10 and DLQI >10, 40 mg weekly, Week 24) was 74 % of Patients and the “PGA “Clear” or “Almost Clear”” value ([2]; baseline PASI ≧10 and DLQI >10, 40 mg weekly, Week 36) was 65 % of Patients. The “PGA “Clear” or “Almost Clear”” value ([2]; baseline PASI ≧10 and DLQI >10, 40 mg weekly, Week 60) was 52 % of Patients, the “PGA “Clear” or “Almost Clear”” value ([2]; baseline PASI ≧10 and DLQI >10, placebo/adalimumab 40 mg eow, Week 24) was 33 % of Patients and the “PGA “Clear” or “Almost Clear”” value ([2]; baseline PASI ≧10 and DLQI >10, placebo/adalimumab 40 mg eow, Week 36) was 44 % of Patients. For the same substance, the “PGA “Clear” or “Almost Clear”” value ([2]; baseline PASI ≧10 and DLQI >10, placebo/adalimumab 40 mg eow, Week 60) was 39 % of Patients, the “PGA “Clear” or “Almost Clear”” value ([2]; dosage escalation group (eow to 40 mg weekly, n = 30), Week 60) was 20% and the “PGA “Clear”/“Almost Clear”” value ([2]; no prior use) was 44%. For the same substance, the “PGA “Clear”/“Almost Clear”” value ([2]; prior biologic use) was 38%, the “PGA “Clear”/“Almost Clear”” value ([2]; prior systemic use) was 47% and the “PASI 50 response, % Patients” value ([3]; Week 12) was 78.7%. The “PASI 75 response, % Patients” value ([3]; Week 12) was 56.2%, the “PASI 90 response, % Patients” value ([3]; Week 12) was 29.2% and the “PASI 100 response, % Patients” value ([3]; Week 12) was 11.2%. The “PASI 50 response, % Patients” value ([3]; Week 24) was 86.7%, the “PASI 75 response, % Patients” value ([3]; Week 24) was 74.7% and the “PASI 90 response, % Patients” value ([3]; Week 24) was 52%. For the same substance, the “PASI 100 response, % Patients” value ([3]; Week 24) was 20%, the “PASI 50 response, % Patients” value ([3]; Week 48) was 96.7% and the “PASI 75 response, % Patients” value ([3]; Week 48) was 81.7%. For the same substance, the “PASI 90 response, % Patients” value ([3]; Week 48) was 61.7%, the “PASI 100 response, % Patients” value ([3]; Week 48) was 31.7% and the “PASI 50 response, % Patients” value ([3]; Week 72) was 96.2%. The “PASI 75 response, % Patients” value ([3]; Week 72) was 73.1%, the “PASI 90 response, % Patients” value ([3]; Week 72) was 53.8% and the “PASI 100 response, % Patients” value ([3]; Week 72) was 25%. For the same substance, the “PASI 50 response, % Patients” value ([3]; Week 96) was 92.5%, the “PASI 75 response, % Patients” value ([3]; Week 96) was 75.5% and the “PASI 90 response, % Patients” value ([3]; Week 96) was 52.8%. For the same substance, the “PASI 100 response, % Patients” value ([3]; Week 96) was 24.5%, the “PASI 50 response, % Patients” value ([3]; Week 120) was 93.9% and the “PASI 75 response, % Patients” value ([3]; Week 120) was 77.6%. The “PASI 90 response, % Patients” value ([3]; Week 120) was 53.1%, the “PASI 100 response, % Patients” value ([3]; Week 120) was 28.6% and the DLQI [4, 5] was 17 and 10 and 30 and 9 and 5. The DLQI [4, 6] was 16 and 5 and 28 and 4 and 7, the DLQI [4, 7] was 15 and 3 and 0 and 9 and the DLQI [4, 8] was 6 (2×) and 1 and 26 and 2. The “mean decrease in DLQI score” value ([4]; five patients, Week 12) was 8.8 and the “% Improvement in DLQI from baseline to Week 12” value [4, 9] was 68% and 91% and 13% and 82% and 57%.
